Data set [1] has as its system mouse FL5.12 cells transfected with Bcl-xL. In words: FL5.12 cellular assay (cell viability, CellTiter-Glo). To be noted: IL-3-depleted, 3% FBS assay media, 24 hours, read-out: FL5.12 Bcl-xL, -IL3, EC50. The format is cell-based. As for the experimental part: Cell viability was assayed using the CellTiter-Glo assay (Promega Corp., Madison, WI) according to the manufacturer instructions. Individual determinations were the result of duplicate values. […] Table 2. In Vitro Data
For orientation: Cellular ATP, detected with luciferase, serves as a proxy for viable cell number.

The test system of data set [2] is Molt-4 human acute lymphoblastic leukemia cells. In words: Molt-4 cellular assay (cell viability, MTS). The format is cell-based. To be noted: 10% human serum, 48 hours. The procedure: Molt-4 (ATCC, Manassas, VA) human acute lymphoblastic leukemia cells were plated 50,000 cells per well in 96-well tissue culture plates in a total volume of 100 µL tissue culture medium supplemented with 10% human serum (Invitrogen, Carlsbad, CA) and treated with a 3-fold serial dilution of the compounds of interest from 5 µM to […]. Each concentration was tested in duplicate at least 3 separate times. The number of viable cells following 48 hours of compound treatment was determined using the CellTiter 96® Aqueous non-radioactive cell proliferation MTS assay according to manufacturer's recommendations (Promega Corp., Madison, WI).

The nature of data set [3]: Single dose pharmacokinetics, oral bioavailability. To be noted: for bioavailability: rat, in vivo, po. In kind it is in vivo, Sprague-Dawley rats.
Description: The single dose pharmacokinetics of select compounds were evaluated in Sprague-Dawley rats (Charles River) after a 5 mg/kg oral dose (n = 3) (10% DMSO in PEG-400) administered by gavage or by 5 mg/kg IV bolus dose (n = 3) (10% DMSO in PEG-400). Compound and the internal standard were separated from each other and coextracted contaminants on a 50 mm × 3 mm Keystone Betasil CN 5 µm column with an acetonitrile/0.1% trifluoroacetic acid mobile phase (50:50, by volume) at a flow rate of 0.7 mL/min. Analysis was performed on a Sciex API3000 biomolecular mass analyzer with a heated nebulizer interface. Compound and internal standard peak areas were determined using Sciex MacQuan software. The plasma drug concentration of each sample was calculated by least-squares linear regression analysis (nonweighted) of the peak area ratio (parent/internal standard) of the spiked plasma standards versus concentration. The plasma concentration data were submitted to multiexponential curve fitting using WinNonlin.3. The area under the plasma concentration-time curve was calculated using the linear trapezoidal rule for the plasma concentration-time profiles.
One way to calculate bioavailability of a drug or agent is by dividing the plasma concentration following an oral dose by the concentration following an intravenous dose.

Here are results for 16 compounds from EP2766361B1, “8-CARBAMOYL-2-(2,3-DISUBSTITUTED PYRID-6-YL)-1,2,3,4-TETRAHYDROISOQUINOLINE DERIVATIVES AS APOPTOSIS-INDUCING AGENTS FOR THE TREATMENT OF CANCER AND IMMUNE AND AUTOIMMUNE DISEASES” (priority 2011, dated 2013).

pEC50: −log10 of the molar value.

`Cc1c(-c2ccc(N3CCc4cccc(C(=O)Nc5nc6ccccc6s5)c4C3)nc2C(=O)O)cnn1CC12CC3CC(CC(C3)C1)C2` [Example 3, 6-[8-(1,3-benzothiazol-2-ylcarbamoyl)-3,4-dihydroisoquinolin-2(1H)-yl]-3-[5-methyl-1-(tricyclo[3.3.1.1^3,7]dec-1-ylmethyl)-1H-pyrazol-4-yl]pyridine-2-carboxylic acid]: the values for the pEC50 in data set [1] and in data set [2] were over 9.00 and 8.22, respectively. The “F (%), dose” value in data set [3] (Rat p.o. dose, 5 mpk) was […].

Turning to `O=C(Nc1nc2ccccc2s1)c1cccc2c1CN(c1ccc(-c3cnn(CC4C5CC6CC(C5)CC4C6)c3)c(C(=O)O)n1)CC2` (centres unmarked) [Example 10, 6-[8-(1,3-benzothiazol-2-ylcarbamoyl)-3,4-dihydroisoquinolin-2(1H)-yl]-3-[1-(tricyclo[3.3.1.1^3,7]dec-2-ylmethyl)-1H-pyrazol-4-yl]pyridine-2-carboxylic acid], the pEC50 – broadly, the EC50 on a negative log10 scale, so that one unit is a factor of ten – in data set [1] was 7.54; in data set [2], 6.31.

In the case of `O=C(Nc1nc2ccccc2s1)c1cccc2c1CN(c1ccc(-c3cnn(CC45CC6CC(CC(C6)O4)C5)c3)c(C(=O)O)n1)CC2` [Example 13, 6-[8-(1,3-benzothiazol-2-ylcarbamoyl)-3,4-dihydroisoquinolin-2(1H)-yl]-3-[1-(2-oxatricyclo[3.3.1.1^3,7]dec-1-ylmethyl)-1H-pyrazol-4-yl]pyridine-2-carboxylic acid], the pEC50 in data set [1] was 7.15. The bioavailability (usually the share of a dose that reaches the circulation, judged against a reference dose that is usually intravenous) in data set [3] (5 mg/kg) was 10%.

`COC12CC3CC(CC(Cn4ncc(-c5ccc(N6CCc7cccc(C(=O)Nc8nc9ccccc9s8)c7C6)nc5C(=O)O)c4C)(C3)C1)C2` [Example 16, 6-[8-(1,3-benzothiazol-2-ylcarbamoyl)-3,4-dihydroisoquinolin-2(1H)-yl]-3-(1-{[3-methoxytricyclo[3.3.1.1^3,7]dec-1-yl]methyl}-5-methyl-1H-pyrazol-4-yl)pyridine-2-carboxylic acid]: the pEC50 in data set [1] was over 9.00. This compound also returned a bioavailability in data set [3] (5 mg/kg) of 20%.

Take `Cc1c(-c2ccc(N3CCc4cccc(C(=O)Nc5nc6ccccc6s5)c4C3)nc2C(=O)NS(=O)(=O)C2CC2)cnn1CC12CC3CC(CC(C3)C1)C2` [Example 18, N-(1,3-benzothiazol-2-yl)-2-{6-[(cyclopropylsulfonyl)carbamoyl]-5-[5-methyl-1-(tricyclo[3.3.1.1^3,7]dec-1-ylmethyl)-1H-pyrazol-4-yl]pyridin-2-yl}-1,2,3,4-tetrahydroisoquinoline-8-carboxamide]: the figures for the pEC50 in data set [1] and in data set [2] were 9.00 and 7.62, respectively. Further, the bioavailability in data set [3] (5 mg/kg) worked out at 31%.

On to `Cc1c(-c2ccc(N3CCc4cccc(C(=O)Nc5nc6ccccc6s5)c4C3)nc2C(=O)O)cc(C#N)n1CC12CC3CC(CC(C3)C1)C2` [Example 23, 6-[8-(1,3-benzothiazol-2-ylcarbamoyl)-3,4-dihydroisoquinolin-2(1H)-yl]-3-[5-cyano-2-methyl-1-(tricyclo[3.3.1.1^3,7]dec-1-ylmethyl)-1H-pyrrol-3-yl]pyridine-2-carboxylic acid], for which the pEC50 in data set [1] is over 9.00; in data set [2], 7.80.

Regarding `Cc1c(-c2ccc(N3CCc4cccc(C(=O)Nc5nc6cccnc6s5)c4C3)nc2C(=O)O)cnn1CC12CC3CC(CC(C3)C1)C2` [Example 24, 3-[5-methyl-1-(tricyclo[3.3.1.1^3,7]dec-1-ylmethyl)-1H-pyrazol-4-yl]-6-[8-([1,3]thiazolo[5,4-b]pyridin-2-ylcarbamoyl)-3,4-dihydroisoquinolin-2(1H)-yl]pyridine-2-carboxylic acid], the pEC50 in data set [1] is over 9.00. This compound yielded a bioavailability in data set [3] (5 mg/kg) of 29%.

On to `Cc1c(OC23CC4CC(CC(C4)C2)C3)cccc1-c1ccc(N2CCc3cccc(C(=O)Nc4nc5ccccc5s4)c3C2)nc1C(=O)O` [Example 28, 6-[8-(1,3-benzothiazol-2-ylcarbamoyl)-3,4-dihydroisoquinolin-2(1H)-yl]-3-{2-methyl-3-[tricyclo[3.3.1.1^3,7]dec-1-yloxy]phenyl}pyridine-2-carboxylic acid], for which the results for the pEC50 in data set [1] and in data set [2] were 7.66 and 6.28, respectively.

In the case of `O=C(Nc1nc2ccccc2s1)c1cccc2c1CN(c1ccc(-c3cnn(CC45CC6CC(CC(C6)C4)C5)c3Cl)c(C(=O)O)n1)CC2` [Example 42, 6-[8-(1,3-benzothiazol-2-ylcarbamoyl)-3,4-dihydroisoquinolin-2(1H)-yl]-3-{5-chloro-1-[tricyclo[3.3.1.1^3,7]dec-1-ylmethyl]-1H-pyrazol-4-yl}pyridine-2-carboxylic acid], in data set [1], the pEC50 was 9.30. This compound also showed a bioavailability in data set [3] (1 mg/kg) of 15%.

For the compound `Cc1c(-c2ccc(N3CCc4cccc(C(=O)Nc5nc6ccccc6s5)c4C3C)nc2C(=O)O)cnn1CC12CC3CC(CC(C3)C1)C2` (centres unmarked) [Example 43, 6-[8-(1,3-benzothiazol-2-ylcarbamoyl)-1-methyl-3,4-dihydroisoquinolin-2(1H)-yl]-3-[5-methyl-1-(tricyclo[3.3.1.1^3,7]dec-1-ylmethyl)-1H-pyrazol-4-yl]pyridine-2-carboxylic acid], in data set [1], the pEC50 is 8.05. This compound also gave a bioavailability in data set [3] (1 mg/kg) of 20%.

`COCCOC12CC3CC(CC(Cn4ncc(-c5ccc(N6CCc7cccc(C(=O)Nc8nc9ccccc9s8)c7C6)nc5C(=O)O)c4C)(C3)C1)C2` [Example 45, 6-[8-(1,3-benzothiazol-2-ylcarbamoyl)-3,4-dihydroisoquinolin-2(1H)-yl]-3-(1-{[3-(2-methoxyethoxy)tricyclo[3.3.1.1^3,7]dec-1-yl]methyl}-5-methyl-1H-pyrazol-4-yl)pyridine-2-carboxylic acid]: the values for the pEC50 in data set [1] and in data set [2] were 9.05 and 8.40, respectively.

Turning to `COCCC1(Cn2ncc(-c3ccc(N4CCc5cccc(C(=O)Nc6nc7ccccc7s6)c5C4)nc3C(=O)O)c2C)CCCCCCC1` [Example 46, 6-[8-(1,3-benzothiazol-2-ylcarbamoyl)-3,4-dihydroisoquinolin-2(1H)-yl]-3-(1-{[1-(2-methoxyethyl)cyclooctyl]methyl}-5-methyl-1H-pyrazol-4-yl)pyridine-2-carboxylic acid], the pEC50 in data set [1] is 9.00. In data set [3] (1 mg/kg), the bioavailability is 58%.

As to `Cc1c(-c2ccc(N3CCc4cccc(C(=O)Nc5cn6ccccc6n5)c4C3)nc2C(=O)O)cnn1CC12CC3CC(CC(C3)C1)C2` [Example 49, 6-[8-(imidazo[1,2-a]pyridin-2-ylcarbamoyl)-3,4-dihydroisoquinolin-2(1H)-yl]-3-[5-methyl-1-(tricyclo[3.3.1.1^3,7]dec-1-ylmethyl)-1H-pyrazol-4-yl]pyridine-2-carboxylic acid], the pEC50 in data set [1] was 8.30. The bioavailability in data set [3] (1 mg/kg) amounted to 15%.

Take `Cc1c(-c2ccc(N3CCc4cccc(C(=O)Nc5nc6ccccc6s5)c4C3)nc2C(=O)O)cccc1N(C)C(=O)C12CC3CC(CC(C3)C1)C2` [Example 52, 6-[8-(1,3-benzothiazol-2-ylcarbamoyl)-3,4-dihydroisoquinolin-2(1H)-yl]-3-(2-methyl-3-{methyl[tricyclo[3.3.1.1^3,7]dec-1-ylcarbonyl]amino}phenyl)pyridine-2-carboxylic acid]: the negative logarithm of the EC50 (pEC50) is 8.52 in data set [1] and 7.54 in data set [2].

Turning to `Cc1c(-c2ccc(N3CCc4cccc(C(=O)Nc5nc6ccccc6s5)c4C3)nc2C(=O)O)cnn1CC12CC3CC(CC(C3)O1)C2` [Example 59, 6-[8-(1,3-benzothiazol-2-ylcarbamoyl)-3,4-dihydroisoquinolin-2(1H)-yl]-3-[5-methyl-1-(2-oxatricyclo[3.3.1.1^3,7]dec-1-ylmethyl)-1H-pyrazol-4-yl]pyridine-2-carboxylic acid], the pEC50 in data set [1] was 9.52; in data set [2], 7.62. Moreover, the bioavailability in data set [3] (1 mg/kg) worked out at 31%.

Take `Cc1c(-c2ccc(N3CCc4cccc(C(=O)Nc5nc6ccccc6s5)c4C3)nc2C(=O)O)cc(C#N)n1CC12CC3CC(CC(C)(C3)O1)C2` [Example 72, 6-[8-(1,3-benzothiazol-2-ylcarbamoyl)-3,4-dihydroisoquinolin-2(1H)-yl]-3-{5-cyano-2-methyl-1-[(3-methyl-2-oxatricyclo[3.3.1.1^3,7]dec-1-yl)methyl]-1H-pyrrol-3-yl}pyridine-2-carboxylic acid]: the pEC50 is 9.70 in data set [1] and 7.46 in data set [2].
